This is an account of results in US10426751B2, “Allosteric activators for treatment of phenylketonuria” (MCMASTER UNIVERSITY, priority 2015, dated 2019).

One assay addresses T1, WT-PAH (Homo sapiens, UniProt P00439).
T1 construct: made in house; the paragraph itself says 'eukaryotic cell cultures' (pMAL vector, Martinez laboratory, University of Bergen)
T1 sequence (P00439 1-452): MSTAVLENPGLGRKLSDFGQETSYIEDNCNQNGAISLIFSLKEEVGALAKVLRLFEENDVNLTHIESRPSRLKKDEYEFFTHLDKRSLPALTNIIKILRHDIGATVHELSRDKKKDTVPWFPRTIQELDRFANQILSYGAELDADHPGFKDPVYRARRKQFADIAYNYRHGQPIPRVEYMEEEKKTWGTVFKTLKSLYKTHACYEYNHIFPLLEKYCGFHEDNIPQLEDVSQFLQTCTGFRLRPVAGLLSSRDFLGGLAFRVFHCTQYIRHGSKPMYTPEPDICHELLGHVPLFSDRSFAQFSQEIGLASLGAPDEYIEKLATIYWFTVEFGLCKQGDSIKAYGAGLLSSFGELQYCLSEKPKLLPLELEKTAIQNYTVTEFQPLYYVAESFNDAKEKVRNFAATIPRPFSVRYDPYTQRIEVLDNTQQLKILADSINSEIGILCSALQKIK
Kind of assay: Primary screen (READ): ligand-induced stabilization of PAH activity in 8 M urea, Tyr formation by CE-UV. It is filed as biochemical. The note with it: 8 M urea, ligand 20 μM; ligand-free enzyme (7±0.5) %. The protocol: Tetrameric human phenylalanine hydroxylase (PAH) enzyme kinetic assays were performed off-line under standardized conditions prior to quantification of Tyr formation by CE with UV detection. Enzyme assays were performed by first mixing together Phe (1 mM), catalase (100 nM) and PAH (0.25 μM/subunit) in a reaction buffer (20 mM HEPES and 200 mM NaCl, pH 7.0) that were equilibrated at 25° C. for 4 min. Then, ferrous (Fe^2+) ammonium sulfate (100 μM) was added to the solution for 1 min and the reaction was subsequently initiated by addition of BH4 ([…]) with DTT (5 mM) using a total volume of 100 μL. The reaction mixture was then vortexed for 60 s followed by sonication for 2 min prior to centrifugation for 10 s at 4 g and storage in a refrigerator (+4° C.). An aliquot (20 μL) was withdrawn from the quenched enzyme reaction and placed in a micro vial containing Me-Tyr as IS (100 μM) prior to CE analysis. The stability of the quenched enzyme reaction was confirmed by intermittent analysis of PAH activity over 6 h at room temperature, and no significant changes in the Tyr/IS or Phe/Tyr response ratio were measured. Enzymatic reactions were performed for both WT-PAH and two PAH mutants by pre-equilibrating each ligand for 10 min prior to addition of ferrous ion and BH4/DDT as described in enzyme reaction protocol in order to assess for ligand-induced PAH inhibition or activation.
Unlike thermal stability assays that can induce protein aggregation, chemical denaturants are more suitable as perturbants to promote unfolding and enzyme inactivation while solubilizing multimeric proteins. In this context, restoration of enzyme activity upon denaturation (READ) was first introduced to characterize PCs that stabilize yet enhance the activity of a lysosomal enzyme, β-glucocerebrosidase (GCase). Herein, READ was modified, further optimized and validated for primary screening of PCs for the cytosolic enzyme (PAH) using a chemical library containing structurally unique compounds with drug-like activity. For instance, the primary screen was used to measure ligand-induced stabilization of PAH by extrinsic small molecules that impart greater resistance to urea unfolding as compared to ligand-free apo-enzyme conditions. PAH activity was first examined as a function of urea concentration (0 to 8 M) and pre-equilibration time (10 min to 2 hr) in order to determine optimum conditions where residual enzyme activity was largely attenuated below 10% due to protein unfolding. Protein unfolding was performed in triplicate offline with the enzyme reaction buffer (20 mM HEPES and 200 mM NaCl, pH 7.0) using tetrameric human PAH (1 μM and/or 0.1 μM) or mutant PAH (1 μM and/or 0.1 μM) incubated 10 min in 0 M or 8 M urea in the presence or absence of ligand (20 μM). Dose-response studies (0, 2.0 and 20 μM) were subsequently performed in triplicate on screen-positive compounds using re-synthesized ligands in order to further validate initial screen results. In all cases, quenched enzyme reactions were processed as described previously prior to CE analysis. PAH activity measurements based on Tyr formation at 8M urea with the presence or absence of PC were normalized to 0 M urea for each aliquot enzyme reaction to minimize long-term variation, which also enables direct comparison of the ligand-induced stabilization activity under denaturing conditions (8M urea) while confirming inhibition and activation effects for ligands under native conditions (0 M urea).

The target in assay [1] is T2, PAH (Mus musculus, UniProt P16331).
T2 construct: inducing a 2-fold enhancement in PAH activity in WT mouse liver; host or cells: liver of WT mice
T2 sequence (P16331 1-453): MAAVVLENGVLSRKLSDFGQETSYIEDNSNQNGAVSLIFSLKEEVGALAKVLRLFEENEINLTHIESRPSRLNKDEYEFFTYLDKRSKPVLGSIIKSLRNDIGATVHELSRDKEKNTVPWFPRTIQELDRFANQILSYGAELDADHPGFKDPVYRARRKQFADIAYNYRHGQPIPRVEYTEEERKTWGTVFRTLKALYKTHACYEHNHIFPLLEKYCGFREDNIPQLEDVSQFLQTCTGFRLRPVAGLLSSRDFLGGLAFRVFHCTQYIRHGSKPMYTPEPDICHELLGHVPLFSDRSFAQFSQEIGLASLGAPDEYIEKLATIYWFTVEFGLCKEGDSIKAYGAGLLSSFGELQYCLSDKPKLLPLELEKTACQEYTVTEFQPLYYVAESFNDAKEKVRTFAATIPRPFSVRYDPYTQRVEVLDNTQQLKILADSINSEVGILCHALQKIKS
To be noted: cited from earlier work.

In assay [2] the target is T3, PAH (Homo sapiens, UniProt P00439).
T3 sequence (P00439 1-452): T1 sequence (P00439 1-452)
The note with it: 100 μM; cited from earlier work.

Assay [3] concerns the target T3, PAH. The note with it: read-out: Ki (weak competitive inhibitor to PAH); cited from earlier work.

What is called Ki is the dissociation constant of the complex between target and ligand, obtained from inhibition or displacement.

With `Nc1c(-c2ccc3ccccc3n2)c2ccc([N+](=O)[O-])cc2c(=O)n1Cc1ccccc1` [compound III, 3-amino-2-benzyl-7-nitro-4-(2-quinolyl)-1,2-dihydroisoquinolin-1-one], on WT-PAH, the “PAH residual activity (% of WT-PAH)” value is listed as 19%. At PAH [1], the “enhancement in PAH activity in WT mouse liver” value is recorded as 2 fold. Moreover, at PAH [2], the “shift of denaturation temperature relative to ligand-free enzyme” value was “greater than 14 °C”.

Turning to `Cc1ccnc(-n2c(=S)[nH]c3sc(C)c(C)c3c2=O)c1` [compound IV, 5,6-dimethyl-3-(4-methyl-2-pyridinyl)-2-thioxo-2,3-dihydrothieno[2,3-d] pyrimidin-4(1H)-one], the “PAH residual activity (% of WT-PAH)” value at WT-PAH came out at 9%. In addition, the Ki on PAH [3] is 200 µM. In addition, the “enhancement in PAH activity in WT mouse liver” value at PAH [1] is reported as 2 fold. The “shift of denaturation temperature relative to ligand-free enzyme” value at PAH [2] is over 7 °C.
